# Measured values reported in US4886663A (priority 1983, dated 1989).
# Where no end group is shown, it is not given here.
# How the values were obtained:
# [1] = system: hyperimmune antisera to synthetic ST; format: binding, goat and rabbit
# [2] = in vivo, po
# [3] = system: hyperimmune rabbit antiserum to biologic ST; conditions: in vivo
# rat ligated ileal loops = conditions: in vivo
# [4] = system: hyperimmune antisera to biologic ST; format: binding, goat and rabbit
# suckling mouse = conditions: in vivo
# [5] = system: goat hyperimmune antiserum to synthetic ST; conditions: in vivo
# [6] = system: rabbit ligated ileal loops; conditions: in vivo
sequence,measurement,setting,value
NTFYCCELCCYPACAGCN (cysteine pairing not given here) [synthetic ST],Anti-Syn. ST: percent recognition of assayed ST by antiserum raised to synthetic ST,[1],100
same,antigenicity compared with biologic ST,[1],identical
same,diarrhea after p.o. administration,[2],did not cause diarrhea
same,mouse units of toxin neutralized by one milliliter of hyperimmune rabbit antiserum to biologic ST,[3],160 MU
same,ED50 in rat ligated ileal loops,rat ligated ileal loops,2.0 nanograms
same,secretory responses in ligated ileal loops compared with biologic ST,rat ligated ileal loops,Substantial identity of secretory responses
same,Anti-Biol.-ST: percent recognition of assayed ST by antiserum raised to biologic ST,[4],263
same,"antigenicity relative to biologic ST Ib, later preparations",[4],about 3 fold
same,Nanograms required to provide a gut: whole body ratio of 0.083,suckling mouse,5.3 ng
same,Suckling Mouse (Percent),suckling mouse,120
same,biological activity / potency in suckling mouse assay compared with biologic (E. coli) ST,suckling mouse,substantially the same as biologic ST
same,mouse units of ST activity per microgram,suckling mouse,175 mouse units per microgram
same,reduction of ST toxicity by the cross-linking reaction to B subunit,suckling mouse,727 fold
same,secretory activity in the suckling mouse assay after dithiothreitol,suckling mouse,abolished its secretory activity
same,value for one mouse unit,suckling mouse,5.7 nanograms
same,mouse units of toxin neutralized by one milliliter of goat hyperimmune antiserum to synthetic ST,[5],220 MU
same,fluid secretion in rabbit ligated ileal loops,[6],did not cause any fluid secretion
same,fluid:length ratio in rabbit ligated ileal loops,[6],1.1±0.3
